Laboratory results: patent EP4678638A1, “NEW E3 UBIQUITIN LIGASE LIGAND, PROTEIN DEGRADATION AGENT AND USE THEREOF” (priority 2023, dated 2024)

Biological target: T1, human Cereblon WT GST-tagged protein (Homo sapiens, UniProt Q96SW2)
T1 construct: purchased CISBIO 64BDCRBNPEH
Assay: CRBN binding, HTRF (CEREBLON BINDING kit)
Details: HTRF; for inhibition at 0.5 µM / inhibition at 2 µM: Table II-2, CRBN binding screening; for inhibition at 0.5 µM: read-out: Inhibition rate (%) at 0.5µM; for inhibition at 2 µM: read-out: Inhibition rate (%) at 2 µM; for IC50: Table II-1, CRBN binding
Description: The CEREBLON BINDING kits (specification: 10,000 tests; product number: Catalog # 64BDCRBNPEH; CISBIO company) was used to determine the CRBN binding ability of the compounds to be tested through a HTRF method (homogeneous time-resolved fluorescence). The specific methods are as follows: • 1. […] Then, 2.5 µL of human Cereblon WT GST-tagged protein solution was added to each well. Finally, 5 µL of the thoroughly mixed Thalidomide-Re reagent and GST Eu antibody working solution were added to each of the aforementioned wells. […] The blank control wells were sequentially added with 2.5 µL of diluent #9 (1X) solution, 2.5 µL of binding buffer, and 5 µL of thoroughly mixed Thalidomide-Re reagent and GST Eu antibody working solution. • 4. After sealing and incubating the solutions in the aforementioned wells at room temperature for 3 hours, the […] at emission wavelengths of 620 nm and 665 nm were detected by the HTRF method using a Spark microplate reader (V3.1 SP1).

T1 sequence (Q96SW2 whole entry): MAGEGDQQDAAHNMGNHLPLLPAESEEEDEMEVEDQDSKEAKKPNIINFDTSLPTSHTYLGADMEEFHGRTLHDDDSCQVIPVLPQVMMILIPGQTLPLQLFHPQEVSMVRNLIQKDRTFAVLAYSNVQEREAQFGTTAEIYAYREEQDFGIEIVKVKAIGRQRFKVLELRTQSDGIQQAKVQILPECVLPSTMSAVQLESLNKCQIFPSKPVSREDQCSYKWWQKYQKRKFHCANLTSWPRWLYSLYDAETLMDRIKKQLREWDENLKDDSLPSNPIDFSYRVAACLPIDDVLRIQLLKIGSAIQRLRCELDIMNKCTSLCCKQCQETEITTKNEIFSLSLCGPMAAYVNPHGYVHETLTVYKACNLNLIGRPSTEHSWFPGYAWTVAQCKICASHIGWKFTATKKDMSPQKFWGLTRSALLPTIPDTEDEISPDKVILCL

Compound	inhibition at 0.5 µM	inhibition at 2 µM	IC50
COc1cc2nn(C3CCN(Cc4cncc(C5CCC(=O)NC5=O)c4)CC3)cc2cc1NC(=O)c1cccc(C(F)(F)F)n1 (centres unmarked) [GT-07536, N-(2-(1-((5-(2,6-dioxopiperidin-3-yl)pyridin-3-yl)methyl)piperidin-4-yl)-6-methoxy-2H-indazol-5-yl)-6-(trifluoromethyl)picolinamide]	10 to 20%	53 to 60%	–
O=C1CCC(c2cnc(F)c(CN3CCC(n4cc(NC(=O)c5cnn6ccc(N7CCOCC7)nc56)c(C(F)F)n4)CC3)c2)C(=O)N1 (centres unmarked) [GT-07767, N-(3-(difluoromethyl)-1-(1-((5-(2,6-dioxopiperidin-3-yl)-2-fluoropyridin-3-yl)methyl)piperidin-4-yl)-1H-pyrazol-4-yl)-5-morpholinopyrazolo[1,5-a]pyrimidine-3-carboxamide]	40 to 53%	80 to 100%	–
CN(c1nccnc1CNc1nc(Nc2ccc(N3CCN(Cc4ccc(C5CCC(=O)NC5=O)cc4)CC3)cc2)ncc1C(F)(F)F)S(C)(=O)=O (centres unmarked) [GT-07399, N-(3-(((2-((4-(4-(4-(2,6-dioxopiperidin-3-yl)benzyl)piperazin-1-yl)phenyl)amino)-5-(trifluoromethyl)pyrimidin-4-yl)amino)methyl)pyrazin-2-yl)-N-methylmethanesulfonamide]	10 to 20%	60 to 80%	–
O=C1CCC(c2cncc(CN3CCC(n4cc(NC(=O)c5cnn6ccc(N7CCOCC7)nc56)c(C(F)F)n4)CC3)c2)C(=O)N1 (centres unmarked) [GT-07770, N-(3-(difluoromethyl)-1-(1-((5-(2,6-dioxopiperidin-3-yl)pyridin-3-yl)methyl)piperidin-4-yl)-1H-pyrazol-4-yl)-5-morpholinopyrazolo[1,5-a]pyrimidine-3-carboxamide]	30 to 40%	80 to 100%	–
O=C1CCN(c2ccc(CN3CCN(C4CCN(c5ccc([C@@H]6c7ccc(O)cc7CC[C@@H]6c6ccccc6)cc5)CC4)CC3)c(F)c2)C(=O)N1 [GT-04687, 1-(3-fluoro-4-((4-(1-(4-((1R,2S)-6-hydroxy-2-phenyl-1,2,3,4-tetrahydronaphthalen-1-yl)phenyl)piperidin-4-yl)piperazin-1-yl)methyl)phenyl)dihydropyr imidine-2,4(1H,3H)-dione]	–	–	1000 to 1900 nM
CC1(C)CCC(c2ccc(Cl)cc2)=C(CN2CCN(c3ccc(C(=O)NS(=O)(=O)c4ccc(N[C@H](CCN5CC6CCC5CN6Cc5cccc(NC6CCC(=O)NC6=O)c5)CSc5ccccc5)c(S(=O)(=O)C(F)(F)F)c4)cc3)CC2)C1 (stereo partly drawn) [GT-07882, 4-(4-((4'-chloro-4,4-dimethyl-3,4,5,6-tetrahydro-[1,1'-biphenyl]-2-yl)methyl)piperazin-1-yl)-N-((4-(((2R)-4-(5-(3-((2,6-dioxopiperidin-3-yl)amino)benzyl)-2,5-diazabicyclo[2.2.2]octan-2-yl)-1-(phenylthio)butan-2-yl)amino)-3-((trifluoromethyl)sulfonyl)phenyl)sulfonyl)benzamide]	30 to 40%	30 to 40%	–
O=C1CCC(c2cncc(CN3CCC(n4cc(NC(=O)c5cnn6ccc(N7C[C@H]8C[C@@H]7CO8)nc56)c(C(F)F)n4)CC3)c2)C(=O)N1 (stereo partly drawn) [GT-07778, 5-((1R,4R)-2-oxa-5-azabicyclo[2.2.1]heptan-5-yl)-N-(3-(difluoromethyl)-1-(1-((5-(2,6-dioxopiperidin-3-yl)pyridin-3-yl)methyl)piperidin-4-yl)-1H-pyrazol-4-yl)pyrazolo[1,5-a]pyrimidine-3-carboxamide]	40 to 53%	80 to 100%	–
O=C1CCN(c2cnc(CN3CCN(c4ccc(-c5cc(F)c6c(c5)C(=O)N(C(C(=O)Nc5nccs5)c5ncn7c5CCC7)C6)cc4)CC3)cn2)C(=O)N1 (centres unmarked) [GT-07761, 2-(6,7-dihydro-5H-pyrrolo[1,2-c]imidazol-1-yl)-2-(6-(4-(4-((5-(2,4-dioxotetrahydropyrimidin-1(2H)-yl)pyrazin-2-yl)methyl)piperazin-1-yl)phenyl)-4-fluoro-1-oxoisoindolin-2-yl)-N-(thiazol-2-yl)acetamide]	20 to 30%	53 to 60%	–
O=C1CCN(c2ccc(CCl)nc2)C(=O)N1 [GT-06984, 1-(6-(Chloromethyl)pyridin-3-yl)dihydropyrimidine-2,4(1H,3H)-dione]	30 to 40%	60 to 80%	–
CC(C)(O)c1cc2nn(C3CCN(Cc4cc(N5CCC(=O)NC5=O)cnc4F)CC3)cc2cc1NC(=O)c1cccc(C(F)(F)F)n1 [GT-07783, N-(2-(1-((5-(2,4-dioxotetrahydropyrimidin-1(2H)-yl)-2-fluoropyridin-3-yl)methyl)piperidin-4-yl)-6-(2-hydroxypropan-2-yl)-2H-indazol-5-yl)-6-(trifluoromethyl)picolinamide]	30 to 40%	60 to 80%	–
COc1cc(N2CCC(N3CCN(Cc4cc(N5CCC(=O)NC5=O)cnc4F)CC3)CC2)ccc1Nc1ncc(Cl)c(Nc2ccccc2P(C)(C)=O)n1 [GT-07759, 1-(5-((4-(1-(4-((5-chloro-4-((2-(dimethylphosphoryl)phenyl)amino)pyrimidin-2-yl)amino)-3-methoxyphenyl)piperidin-4-yl)piperazin-1-yl)methyl)-6-fluoropyridin-3-yl)dihydropyrimidine-2,4(1H,3H)-dione]	30 to 40%	53 to 60%	–
O=C1CCN(c2ccc(CN3CCN(C4CCN(c5ccc([C@@H]6c7ccc(O)cc7CC[C@@H]6c6ccccc6)cc5)CC4)CC3)cc2)C(=O)N1 [GT-04686, 1-(4-((4-(1-(4-((1R,2S)-6-hydroxy-2-phenyl-1,2,3,4-tetrahydronaphthalen-1-yl)phenyl)piperidin-4-yl)piperazin-1-yl)methyl)phenyl)dihydropyr imidine-2,4(1H,3H)-dione]	–	–	1000 to 1900 nM
CN(c1nccnc1CNc1nc(Nc2ccc(N3CCN(Cc4ccc(N5CCC(=O)NC5=O)cn4)CC3)cc2)ncc1C(F)(F)F)S(C)(=O)=O [GT-07403, N-(3-(((2-((4-(4-((5-(2,4-dioxotetrahydropyrimidin-1(2H)-yl)pyridin-2-yl)methyl)piperazin-1-yl)phenyl)amino)-5-(trifluoromethyl)pyrimidin-4-yl)amino)methyl)pyrazin-2-yl)-N-methylmethanesulfonamide]	30 to 40%	60 to 80%	–
O=C1CCC(c2ccc(CN3CCC(n4cc(NC(=O)c5cnn6ccc(N7CCOCC7)nc56)c(C(F)F)n4)CC3)nc2)C(=O)N1 (centres unmarked) [GT-07769, N-(3-(difluoromethyl)-1-(1-((5-(2,6-dioxopiperidin-3-yl)pyridin-2-yl)methyl)piperidin-4-yl)-1H-pyrazol-4-yl)-5-morpholinopyrazolo[1,5-a]pyrimidine-3-carboxamide]	40 to 53%	80 to 100%	–
O=C1CCN(c2ccc(CN3CCN(C4CCN(c5ccc([C@@H]6c7ccc(O)cc7CC[C@@H]6c6ccccc6)cc5)CC4)CC3)cc2F)C(=O)N1 [GT-04738, 1-(2-fluoro-4-((4-(1-(4-((1R,2S)-6-hydroxy-2-phenyl-1,2,3,4-tetrahydronaphthalen-1-yl)phenyl)piperidin-4-yl)piperazin-1-yl)methyl)phenyl)dihydropyr imidine-2,4(1H,3H)-dione]	–	–	1000 to 1900 nM
CNC(=O)c1ccccc1Nc1cc(Nc2cc(C)c(C3CCN(Cc4ccc(N5CCC(=O)NC5=O)cn4)CC3)cc2OC(C)C)ncc1C(F)(F)F [GT-07669, 2-((2-((4-(1-((5-(2,4-dioxotetrahydropyrimidin-1(2H)-yl)pyridin-2-yl)methyl)piperidin-4-yl)-2-isopropoxy-5-methylphenyl)amino)-5-(trifluoromethyl)pyridin-4-yl)amino)-N-methylbenzamide]	10 to 20%	53 to 60%	–
O=C1CCC(c2ccc(CN3CCC(n4cc(NC(=O)c5cnn6ccc(N7C[C@H]8C[C@@H]7CO8)nc56)c(C(F)F)n4)CC3)nc2)C(=O)N1 (stereo partly drawn) [GT-07777, 5-((1R,4R)-2-oxa-5-azabicyclo[2.2.1]heptan-5-yl)-N-(3-(difluoromethyl)-1-(1-((5-(2,6-dioxopiperidin-3-yl)pyridin-2-yl)methyl)piperidin-4-yl)-1H-pyrazol-4-yl)pyrazolo[1,5-a]pyrimidine-3-carboxamide]	53 to 60%	80 to 100%	–
O=C1CCN(c2cncc(CN3CCC(n4cc(NC(=O)c5cnn6ccc(N7C[C@H]8C[C@@H]7CO8)nc56)c(C(F)F)n4)CC3)c2)C(=O)N1 [GT-07774, 5-((1R,4R)-2-oxa-5-azabicyclo[2.2.1]heptan-5-yl)-N-(3-(difluoromethyl)-1-(1-((5-(2,4-dioxotetrahydropyrimidin-1(2H)-yl)pyridin-3-yl)methyl)piperidin-4-yl)-1H-pyrazol-4-yl)pyrazolo[1,5-a]pyrimidine-3-carboxamide]	40 to 53%	80 to 100%	–
O=C1CCN(c2cnc(F)c(CN3CCC(n4cc(NC(=O)c5cnn6ccc(N7C[C@H]8C[C@@H]7CO8)nc56)c(C(F)F)n4)CC3)c2)C(=O)N1 [GT-07791, 5-((1R,4R)-2-oxa-5-azabicyclo[2.2.1]heptan-5-yl)-N-(3-(difluoromethyl)-1-(1-((5-(2,4-dioxotetrahydropyrimidin-1(2H)-yl)-2-fluoropyridin-3-yl)methyl)piperidin-4-yl)-1H-pyrazol-4-yl)pyrazolo[1,5-a]pyrimidine-3-carboxamide]	30 to 40%	60 to 80%	–
